Structures can show the parent of a compound that is named as a salt.
How the values were obtained:
[1] = target: T1, HCV genotype 1b (BK) NS3 modified enzyme with a R155K mutation (Hepatitis C virus genotype 1b, UniProt P26663, R1181K); assay: HCV NS3 protease time-resolved fluorescence (TRF) assay, genotype 1b R155K; format: biochemical; conditions: Ki 1b R155K
T1 construct: HCV genotype 1b (BK) NS3 modified enzyme
Summary of the method: (§1)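 IC50 values derive from 4-parameter fitting of TRF signal after a 6 h room-temperature cleavage of 25 nM peptide substrate by NS3/NS4A that had been pre-incubated 10 min with compound.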

[2] = target: HCV NS3 protease genotype 3a (3A-1) (Hepatitis C virus genotype 3a, UniProt Q81258); assay: HCV NS3 protease time-resolved fluorescence (TRF) assay, genotype 3a; format: biochemical; conditions: Ki 3a
Summary of the method: as §1

[3] = genotype 1b (BK) NS3 R155K, single value
[4] = first of two values printed in the cell (not explained)
[5] = second of two values printed in the cell (not explained)

Compound | Ki [1, 3] [nM] | Ki [2] [nM] | Ki [1, 4] [nM] | Ki [1, 5] [nM]
C=C[C@@H]1C[C@]1(NC(=O)[C@@H]1C[C@@H]2CN1C(=O)[C@H](C(C)(C)C)NC(=O)O[C@@H]1CCC[C@H]1CCCCCc1c(nc3ccccc3c1O)O2)C(=O)NS(=O)(=O)C1(COC)CC1 [Example 35, (3aR,7S,10S,12R,24aR)-7-tert-butyl-N-[(1R,2S)-2-ethenyl-1-({[1-(methoxymethyl)cyclopropyl]sulfonyl}carbamoyl)cyclopropyl]-19-hydroxy-5,8-dioxo-1,2,3,3a,5,6,7,8,11,12, 20,21,22,23,24,24a-hexadecahydro-10H-9,12-methanocyclopenta[18,19][1,10,3,6] dioxadiazacyclononadecino[11,12-b]quinoline-10-carboxamide] | 0.15 | 2 | – | –
C=C[C@@H]1C[C@]1(NC(=O)[C@@H]1C[C@@H]2CN1C(=O)[C@H](C1CCCC1)NC(=O)O[C@@H]1CCC[C@H]1CC/C=C/Cc1c(nc3ccccc3c1OCCCn1cnnc1)O2)C(=O)NS(=O)(=O)C1(C)CC1 [Example 53, (3aR,7S,10S,12R,21E,24aS)-7-cyclopentyl-N-[(1R,2S)-2-ethenyl-1-{[(1-methylcyclopropyl)sulfonyl]carbamoyl}cyclopropyl]-5,8-dioxo-19-[3-(4H-1,2,4-triazol-4-yl)propoxy]-1,2,3,3a,5,6,7,8,11,12,20,23,24,24a-tetra decahydro-10H-9,12-methanocyclopenta[18,19][1,10,3,6] dioxadiazacyclononadecino[11,12-b] quinoline-10-carboxamide] | 0.11 | 0.55 | – | –
C=C[C@@H]1C[C@]1(NC(=O)[C@@H]1C[C@@H]2CN1C(=O)[C@H](C(C)(C)C)NC(=O)O[C@@H]1C[C@H]1CCCCCc1c(nc3ccccc3c1OCCNC1CC1)O2)C(=O)NS(=O)(=O)C1(C)CC1 [Example 178, (1aR,5S,8S,10R,22aR)-5-tert-butyl-17-[2-(cyclopropylamino)ethoxy]-N-[(1R,2S)-2-ethenyl-1-{[(1-methylcyclopropyl)sulfonyl]carbamoyl}cyclopropyl]-3,6-dioxo-1,1a,3,4,5,6,9,10, 18,19,20,21,22,22a-tetradeca hydro-8H-7,10-methanocyclopropa[18,19][1,10,3,6] dioxadiazacyclononadecino[11,12-b] quinoline-8-carboxamide] | 0.14 | 3.6 | – | –
C=C[C@@H]1C[C@]1(NC(=O)[C@@H]1C[C@@H]2CN1C(=O)[C@H](C(C)(C)C)NC(=O)O[C@@H]1C[C@H]1CCCCCc1c(nc3ccccc3c1O[C@@H]1C[C@H]3C[C@@H]1CN3CCOC)O2)C(=O)NS(=O)(=O)C1(C)CC1 [Example 231, (1aR,5S,8S,10R,22aR)-5-tert-butyl-N-[(1R,2S)-2-ethenyl-1-{[(1-methylcyclopropyl)sulfonyl]carbamoyl}cyclopropyl]-17-{[(1R,4R,5R)-2-(2-methoxyethyl)-2-azabicyclo[2.2.1]hept-5-yl]oxy}-3,6-dioxo-1,1a,3,4,5,6,9,10,18,19,20,21,22,22a-tetradecahydro-8H-7,10-methanocyclopropa[18,19][1,10,3,6] dioxadiazacyclononadecino[11,12-b]quinoline-8-carboxamide] | 0.13 | 1.8 | – | –
C=C[C@@H]1C[C@]1(NC(=O)[C@@H]1C[C@@H]2CN1C(=O)[C@H](C(C)(C)C)NC(=O)O[C@@H]1C[C@H]1CCCCCc1c(nc3ccccc3c1OCCN1CCOC(C)(C)C1)O2)C(=O)NS(=O)(=O)C1(C)CC1 [Example 173, (1aR,5S,8S,10R,22aR)-5-tert-butyl-17-[2-(2,2-dimethylmorpholin-4-yl)ethoxy]-N-[(1R,2S)-2-ethenyl-1-{[(1-methylcyclopropyl)sulfonyl]carbamoyl}cyclopropyl]-3,6-dioxo-1,1a,3,4,5,6,9,10,18,19,20,21, 22,22a-tetradecahydro-8H-7,10-methanocyclopropa[18,19][1,10,3,6] dioxadiazacyclononadecino[11,12-b] quinoline-8-carboxamide] | 0.34 | 9.5 | – | –
C=C[C@@H]1C[C@]1(NC(=O)[C@@H]1C[C@@H]2CN1C(=O)[C@H](C(C)(C)C)NC(=O)O[C@@H]1C[C@H]1CCCCCc1c(nc3c(F)cccc3c1OCCN1CCCCC1)O2)C(=O)NS(=O)(=O)C1(C)CC1 [Example 213, (1aR,5S,8S,10R,22aR)-5-tent-butyl-N-[(1R,2S)-2-ethenyl-1-{[(1-methylcyclopropyl)sulfonyl]carbamoyl}cyclopropyl]-13-fluoro-3,6-dioxo-17-[2-(piperidin-1-yl)ethoxy]-1,1a,3,4,5,6,9,10,18,19,20,21,22,22a-tetradecahydro-8H-7,10-methanocyclopropa[18,19][1,10,3,6] dioxadiazacyclononadecino[11,12-b]quinoline-8-carboxamide] | 0.36 | 3.8 | – | –
C=C[C@@H]1C[C@]1(NC(=O)[C@@H]1C[C@@H]2CN1C(=O)[C@H](C(C)(C)C)NC(=O)O[C@@H]1CCC[C@H]1CC/C=C/Cc1c(nc3ccccc3c1OC)O2)C(=O)NS(=O)(=O)C1CC1 [Example 6, (3aR,7S,10S,12R,21E,24aS)-7-tert-butyl-N-{(1R,2S)-1-[(cyclopropylsulfonyl)carbamoyl]-2-ethenylcyclopropyl}-19-methoxy-5,8-dioxo-1,2,3,3a,5,6,7,8,11,12,20,23,24,24a-tetradecahydro-10H-9,12-methanocyclopenta[18,19][1,10,3,6] dioxadiazacyclononadecino[11,12-b]quinoline-10-carboxamide] | 0.1 | 1.3 | – | –
C=C[C@@H]1C[C@]1(NC(=O)[C@@H]1C[C@@H]2CN1C(=O)[C@H](C(C)(C)C)NC(=O)O[C@@H]1C[C@H]1CCCCCc1c(nc3ccccc3c1OCCCN(C)Cc1ncc(C)[nH]1)O2)C(=O)NS(=O)(=O)C1(C)CC1 [Example 201, (1aR,5S,8S,10R,22aR)-5-tert-butyl-N-[(1R,2S)-2-ethenyl-1-{[(1-methylcyclopropyl)sulfonyl]carbamoyl}cyclopropyl]-17-(3-{methyl[(5-methyl1H-imidazol-2-yl)methyl]amino}proopoxy)-3,6-dioxo-1,1a,3,4,5,6,9,10,18,19,20,21,22,22a-tetradecahydro-8H-7,10-methanocyclopropa[18,19][1,10,3,6] dioxadiazacyclononadecino[11,12-b] quinoline-8-carboxamide] | 0.079 | 1.3 | – | –
C=C[C@@H]1C[C@]1(NC(=O)[C@@H]1C[C@@H]2CN1C(=O)[C@H](C1CCCCC1)NC(=O)O[C@@H]1C[C@H]1CCCCCc1c(nc3ccccc3c1OC1CC3CCC(C1)N3)O2)C(=O)NS(=O)(=O)C1(C)CC1 (stereo partly drawn) [Example 283, potassium {[(1R,2S)-1-({[(1aR,5S,8S,10R,22aR)-17-(8-azabicyclo[3.2.1]oct-3-yloxy)-5-cyclohexyl-3,6-dioxo-1,1a,3,4,5,6,9,10,18,19,20,21,22,22a-tetradecahydro-8H-7,10-methanocyclopropa[18,19][1,10,3,6]dioxadiazacyclononadecino[11,12-b]quinolin-8-yl]carbonyl}amino)-2-ethenylcyclopropyl]carbonyl}[(1-methylcyclopropyl)sulfonyl]azanide] | – | 0.108 | 0.014 | 0.022
C=C[C@@H]1C[C@]1(NC(=O)[C@@H]1C[C@@H]2CN1C(=O)[C@H](C(C)(C)C)NC(=O)O[C@@H]1C[C@H]1CCCCCc1c(nc3ccccc3c1OC1CC3CCC(C1)N3CC)O2)C(=O)NS(=O)(=O)C1(C)CC1 (single isomer, unassigned) [Example 281] | – | 1.25 | 0.016 | 0.125
C=C[C@@H]1C[C@]1(NC(=O)[C@@H]1C[C@@H]2CN1C(=O)[C@H](C(C)(C)C)NC(=O)O[C@@H]1C[C@H]1CCCCCc1c(nc3ccccc3c1OCCCNC1CCC1)O2)C(=O)NS(=O)(=O)C1(C)CC1 [Example 180, (1aR,5S,8S,10R,22aR)-5-tert-butyl-17-[3-(cyclobutylamino)propoxy]-N-[(1R,2S)-2-ethenyl-1-{[(1-methylcyclopropyl)sulfonyl]carbamoyl}cyclopropyl]-3,6-dioxo-1,1a,3,4,5,6,9,10, 18,19,20,21,22,22a-tetradeca hydro-8H-7,10-methanocyclopropa[18,19][1,10,3,6] dioxadiazacyclononadecino[11,12-b] quinoline-8-carboxamide] | 0.037 | 0.58 | – | –
C=C[C@@H]1CC1(NC(=O)[C@@H]1C[C@@H]2CN1C(=O)[C@H](C(C)(C)C)NC(=O)O[C@@H]1C[C@H]1CCCCCc1c(nc3ccccc3c1OC1C3CNCC1COC3)O2)C(=O)NS(=O)(=O)C1(C)CC1 (single isomer, unassigned) [Example 258, trifluoroacetate] | – | 2.75 | 0.012 | 0.079
C=C[C@@H]1C[C@]1(NC(=O)[C@@H]1C[C@@H]2CN1C(=O)[C@H](C1CCCCC1)NC(=O)O[C@@H]1C[C@H]1CCCCCc1c(nc3ccccc3c1OCCCN1CCOCC1)O2)C(=O)NS(=O)(=O)C1(C)CC1 [Example 240, 4-(3-{[(1aR,5S,8S,10R,22aR)-5-cyclohexyl-8-{[(1R,2S)-2-ethenyl-1-{[(1-methylcyclopropyl)sulfonyl]carbamoyl}cyclopropyl]carbamoyl}-3,6-dioxo-1,1a,3,4,5,6,9,10,18,19,20,21,22,22a-tetradecahydro-8H-7,10-methanocyclopropa[18,19][1,10,3,6]dioxadiazacyclononadecino[11,12-b]quinolin-17-yl]oxy}propyl)morpholin-4-ium formate] | – | 2.9 | 0.019 | 0.28
